According to patent US20170158636A1, “FUNCTIONALISED AND SUBSTITUTED CARBAZOLES AS ANTI-CANCER AGENTS” (Novogen Ltd., priority 2014, published 2017):

Tests used:
Experiment in all cases: Anti-proliferative activity, cell-titre luminescent viability assay
Assay type in all cases: cell-based
[1] = tested on: SK-Mel-28 melanoma cells; conditions: Homo sapiens, 72 hours exposure
Procedure, shortened: (§1)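 Seeded cell lines attached 24 h (37° C, 5% CO2), then received compound for 72 h before a 30 min luminescent viability read versus untreated control. Four-point series (0.03–30 μM) gave IC50 by linear regression of semi-log percent-of-control plots; six-point series (0.1–30 μM) gave vehicle-normalized EC50 from variable-slope sigmoidal fits.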

[2] = tested on: A549 lung (NSLC) cancer cells; conditions: Homo sapiens, 72 hours exposure
Procedure, shortened: as §1

[3] = tested on: DU145 prostate cancer cells; conditions: Homo sapiens, DU-145, 72 hours exposure
Procedure, shortened: as §1

[4] = tested on: MDA-MB-231 breast cancer cells; conditions: Homo sapiens, 72 hours exposure
Procedure, shortened: as §1

[5] = tested on: CaCo2 colorectal cancer cells; conditions: Homo sapiens, Caco-2, 72 hours exposure
Procedure, shortened: as §1

[6] = tested on: SK-N-SH neuroblastoma cells; conditions: Homo sapiens, 72 hours exposure
Procedure, shortened: as §1

[7] = tested on: PC3 prostate cancer cells; conditions: 72 hours exposure
Procedure, shortened: as §1

SMILES: CCN(CC)CCCn1c2ccccc2c2cc(C(=O)N3CCN(CCc4ccc(F)cc4)CC3)ccc21 [Compound 1007, (9-(3-(diethylamino)propyl)-9H-carbazol-3-yl)(4-(4-fluorophenethyl)piperazin-1-yl)methanone]
- IC50 [1]: 1.2 µM
- IC50 [2]: 1.9 µM
- IC50 [3]: 3 µM
- IC50 [4]: 2.4 µM
- IC50 [5]: 2.8 µM
- IC50 [6]: 1.6 µM
- IC50 [7]: 3.2 µM
